Source: patent US10988477B2 (Merck Patent GmbH, priority 2018, dated 2021)

How the values were obtained:
[1] = biological target: intracellular GCN2 (phosphorylation of the GCN2 substrate eIF2α) (Homo sapiens, UniProt Q9P2K8); assay: GCN2 cellular inhibition assay (AlphaScreen SureFire P-eIF2α Ser51, borrelidin-treated U2OS cells); format: cell-based; conditions: biomarker assay, phosphorylated eIF2α Ser51 in borrelidin-treated U2OS cells
Outline: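 U2OS, overnight attach; cpd 4-fold serial dil. from 40 μM final; borrelidin 10 μM, 1 h 37 °C/5% CO2; lyse; AlphaScreen P-eIF2α Ser51 (acceptor 2 h, donor overnight, RT, dark); % inhib. vs borrelidin-only.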

[2] = biological target: GCN2 kinase (Homo sapiens, UniProt Q9P2K8); assay: GCN2 enzyme inhibition assay (Transcreener ADP2 fluorescence polarization); format: biochemical; conditions: 280 μM ATP
Outline: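 Run at 25 °C in 25 mM Tris-HCl pH 7.5, 50 mM NaCl, 10 mM MgCl2, 1 mM DTT with 4 nM GCN2, 280 μM ATP and 200 μM (RS)7 peptide; compound (0–8 μM final) preincubated 10 min, reaction 1 h. ADP read by antibody/tracer FP; IC50 and Ki(app) from tight-binding fit.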

[3] = Enzyme activity for compounds of Formula IV, Ki(app), 25° C.
[4] = compounds of Formula II, 4 nM GCN2 kinase

Chain of GCN2 kinase (Q9P2K8 whole entry): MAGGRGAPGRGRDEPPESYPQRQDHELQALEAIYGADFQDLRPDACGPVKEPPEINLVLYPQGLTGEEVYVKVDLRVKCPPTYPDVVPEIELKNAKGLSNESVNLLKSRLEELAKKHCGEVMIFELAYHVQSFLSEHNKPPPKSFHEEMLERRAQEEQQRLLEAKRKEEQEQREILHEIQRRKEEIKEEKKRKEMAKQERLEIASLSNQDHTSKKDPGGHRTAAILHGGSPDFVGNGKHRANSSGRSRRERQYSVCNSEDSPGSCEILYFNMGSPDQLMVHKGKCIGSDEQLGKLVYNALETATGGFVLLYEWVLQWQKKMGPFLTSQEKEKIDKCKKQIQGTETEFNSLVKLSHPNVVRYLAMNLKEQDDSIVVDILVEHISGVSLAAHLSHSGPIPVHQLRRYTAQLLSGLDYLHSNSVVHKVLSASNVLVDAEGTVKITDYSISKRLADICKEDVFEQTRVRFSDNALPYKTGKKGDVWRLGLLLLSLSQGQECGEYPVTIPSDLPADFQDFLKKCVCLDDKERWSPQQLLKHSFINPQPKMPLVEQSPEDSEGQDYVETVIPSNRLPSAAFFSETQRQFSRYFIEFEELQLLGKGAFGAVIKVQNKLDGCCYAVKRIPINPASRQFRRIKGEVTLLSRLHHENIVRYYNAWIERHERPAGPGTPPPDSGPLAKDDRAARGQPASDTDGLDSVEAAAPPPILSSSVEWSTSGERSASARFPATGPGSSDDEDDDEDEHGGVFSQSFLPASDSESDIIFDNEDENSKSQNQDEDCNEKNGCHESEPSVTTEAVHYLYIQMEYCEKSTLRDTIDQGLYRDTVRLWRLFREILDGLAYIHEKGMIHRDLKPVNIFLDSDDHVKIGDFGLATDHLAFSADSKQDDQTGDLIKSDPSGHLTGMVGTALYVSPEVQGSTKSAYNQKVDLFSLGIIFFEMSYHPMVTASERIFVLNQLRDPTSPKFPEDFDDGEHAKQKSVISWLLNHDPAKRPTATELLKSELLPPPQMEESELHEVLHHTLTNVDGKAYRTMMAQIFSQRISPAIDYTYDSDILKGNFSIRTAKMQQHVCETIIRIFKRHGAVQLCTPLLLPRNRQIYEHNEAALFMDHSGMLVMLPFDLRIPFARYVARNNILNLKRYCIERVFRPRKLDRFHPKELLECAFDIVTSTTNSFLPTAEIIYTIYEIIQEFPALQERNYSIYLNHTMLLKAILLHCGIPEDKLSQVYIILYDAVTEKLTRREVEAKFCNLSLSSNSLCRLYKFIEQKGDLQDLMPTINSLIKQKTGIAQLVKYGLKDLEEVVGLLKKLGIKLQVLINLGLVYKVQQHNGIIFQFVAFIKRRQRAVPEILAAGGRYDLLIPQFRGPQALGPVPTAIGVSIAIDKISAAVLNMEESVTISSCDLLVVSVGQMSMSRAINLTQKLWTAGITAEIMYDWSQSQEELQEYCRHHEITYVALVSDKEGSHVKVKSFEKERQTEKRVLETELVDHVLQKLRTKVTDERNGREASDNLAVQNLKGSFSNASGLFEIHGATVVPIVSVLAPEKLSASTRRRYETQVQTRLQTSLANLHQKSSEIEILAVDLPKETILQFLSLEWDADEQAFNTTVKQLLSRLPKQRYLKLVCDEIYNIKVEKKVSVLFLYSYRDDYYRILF
Chain of intracellular GCN2 (phosphorylation of the GCN2 substrate eIF2α) (Q9P2K8 whole entry): as above

Row | SMILES | IC50 ([1]; compounds of Formula IV) [nM] | Ki [2, 3] [nM] | IC50 ([1]; compounds of Formula II) [nM] | Ki [2, 4] [nM]
1 | CC1CN(c2cc(-c3cnc4ccc(C(N)=O)nn34)ncn2)C(C)C(c2cn[nH]c2)N1 (stereo not drawn) [II-728, 3-[6-[2,5-Dimethyl-3-(1H-pyrazol-4-yl)piperazin-1-yl]pyrimidin-4-yl]imidazo[1,2-b]pyridazine-6-carboxamide] |  |  | > 5000 | 10 to 1000
2 | CS(=O)(=O)N1CCOC2(CN(c3cc(-c4cnc5ccc(C(F)F)nn45)ncn3)C2)C1 [II-280, 2-(6-(6-(Difluoromethyl)imidazo[1,2-b]pyridazin-3-yl)pyrimidin-4-yl)-8-(methylsulfonyl)-5-oxa-2,8-diazaspiro[3.5]nonane] |  |  | > 5000 | 10 to 1000
3 | CN1CCN(c2cc(-c3cnc4ccc(C(F)F)nn34)ncn2)CC1C(N)=O (stereo not drawn) [II-453, 4-(6-(6-(Difluoromethyl)imidazo[1,2-b]pyridazin-3-yl)pyrimidin-4-yl)-1-methylpiperazine-2-carboxamide] |  |  | > 5000 | 10 to 1000
4 | CS(=O)(=O)CCC1CCCN(c2cc(-c3cnc4ccc(C(F)F)nn34)ncn2)C1 (stereo not drawn) [II-493, 6-(Difluoromethyl)-3-(6-(3-(2-(methylsulfonyl)ethyl)piperidin-1-yl)pyrimidin-4-yl)imidazo[1,2-b]pyridazine] |  |  | 500 to 5000 | 10 to 1000
5 | NC(=O)C1COCCN(c2cc(-c3cnc4ccc(C(F)F)nn34)ncn2)C1 (stereo not drawn) [II-210, 4-(6-(6-(Difluoromethyl)imidazo[1,2-b]pyridazin-3-yl)pyrimidin-4-yl)-1,4-oxazepane-6-carboxamide] |  |  | > 5000 | 10 to 1000
6 | CS(=O)(=O)NC1CCN(c2cc(-c3cnc4ccc(C(F)F)nn34)ncn2)C1 (stereo not drawn) [II-199, N-(1-(6-(6-(Difluoromethyl)imidazo[1,2-b]pyridazin-3-yl)pyrimidin-4-yl)pyrrolidin-3-yl)methanesulfonamide] |  |  | > 5000 | 10 to 1000
7 | CC(=O)N1CCN(c2cc(-c3cnc4ccc(C(F)F)nn34)ccn2)CC1 [II-176, 1-(4-(4-(6-(Difluoromethyl)imidazo[1,2-b]pyridazin-3-yl)pyridin-2-yl)piperazin-1-yl)ethanone] |  |  | 500 to 5000 | 10 to 1000
8 | NC(=O)CCC1CCCN(c2cc(-c3cnc4ccc(C(F)F)nn34)ncn2)C1 (stereo not drawn) [II-214, 3-(1-(6-(6-(Difluoromethyl)imidazo[1,2-b]pyridazin-3-yl)pyrimidin-4-yl)piperidin-3-yl)propanamide] |  |  | 500 to 5000 | 10 to 1000
9 | CS(=O)(=O)C1CCN(c2cc(-c3cnc4ccc(C(F)F)nn34)ncn2)C1 (stereo not drawn) [II-395, 6-(Difluoromethyl)-3-(6-(3-(methylsulfonyl)pyrrolidin-1-yl)pyrimidin-4-yl)imidazo[1,2-b]pyridazine] |  |  | > 5000 | 10 to 1000
10 | O=S(=O)(N[C@H]1CCCN(c2cc(-c3cnc4ccc(C(F)F)nn34)ncn2)C1)C1COC1 [II-419, (S)—N-(1-(6-(6-(Difluoromethyl)imidazo[1,2-b]pyridazin-3-yl)pyrimidin-4-yl)piperidin-3-yl)oxetane-3-sulfonamide] |  |  | 500 to 5000 | 10 to 1000
11 | CC1C(CNS(C)(=O)=O)C(F)(F)C(C)CN1c1cc(-c2cnc3ccc(C(F)F)nn23)ncn1 (stereo not drawn) [II-476, N-((1-(6-(6-(Difluoromethyl)imidazo[1,2-b]pyridazin-3-yl)pyrimidin-4-yl)-4,4-difluoro-2,5-dimethylpiperidin-3-yl)methyl)methanesulfonamide] |  |  | 500 to 5000 | 10 to 1000
12 | FC(F)c1ccc2ncc(-c3ccnc(N4CCOC(c5cn[nH]c5)C4)c3)n2n1 (stereo not drawn) [II-147, 4-(4-(6-(Difluoromethyl)imidazo[1,2-b]pyridazin-3-yl)pyridin-2-yl)-2-(1H-pyrazol-4-yl)morpholine] |  |  | < 500 | 10 to 1000
13 | OCCC1CCN(c2cc(-c3cnc4ccc(C(F)F)nn34)ccn2)CC1 [II-168, 2-(1-(4-(6-(Difluoromethyl)imidazo[1,2-b]pyridazin-3-yl)pyridin-2-yl)piperidin-4-yl)ethanol] |  |  | 500 to 5000 | 10 to 1000
14 | CC1CN(c2cc(-c3cnc4ccc(C(F)(F)F)nn34)ncn2)C(C)C(c2cn[nH]c2)N1 (stereo not drawn) [II-704, 3-(6-(2,5-Dimethyl-3-(1H-pyrazol-4-yl)piperazin-1-yl)pyrimidin-4-yl)-6-(trifluoromethyl)imidazo[1,2-b]pyridazine] |  |  | > 5000 | 10 to 1000

Other lines, results leading:

Row | IC50 ([1]; compounds of Formula IV) [nM] | Ki [2, 3] [nM] | IC50 ([1]; compounds of Formula II) [nM] | Ki [2, 4] [nM] | SMILES
15 | > 5000 | 100 to 1000 |  |  | FC(F)(F)c1cn2c(-c3nccc(N4CCCC(c5cocn5)C4)n3)cnc2cn1 (stereo not drawn) [IV-694, 4-(1-(2-(6-(Trifluoromethyl)imidazo[1,2-a]pyrazin-3-yl)pyrimidin-4-yl)piperidin-3-yl)oxazole]
16 | > 5000 | 100 to 1000 |  |  | O=C1CCC2CN(c3ccnc(-c4cnc5cnc(C(F)F)cn45)n3)CCN12 (stereo not drawn) [IV-98, 2-(2-(6-(Difluoromethyl)imidazo[1,2-a]pyrazin-3-yl)pyrimidin-4-yl)hexahydropyrrolo[1,2-a]pyrazin-6(2H)-one]
17 | 500 to 5000 | < 10 |  |  | FC(F)(F)c1cn2c(-c3nccc(N4CCNC(c5cn[nH]c5)C4)n3)cnc2cn1 (stereo not drawn) [IV-211, 3-(4-(3-(1H-Pyrazol-4-yl)piperazin-1-yl)pyrimidin-2-yl)-6-(trifluoromethyl)imidazo[1,2-a]pyrazine]
18 | < 500 | < 10 |  |  | Fc1n[nH]cc1C1CCCN(c2ccnc(-c3cnc4cnc(C(F)(F)F)cn34)n2)C1 (single isomer, unassigned) [IV-491, 3-(4-(3-(3-Fluoro-1H-pyrazol-4-yl)piperidin-1-yl)pyrimidin-2-yl)-6-(trifluoromethyl)imidazo[1,2-a]pyrazine]
19 | 500 to 5000 | 10 to 100 |  |  | OCc1n[nH]cc1C1CCN(c2ccnc(-c3cnc4cnc(C(F)(F)F)cn34)n2)C1 (stereo not drawn) [IV-573, (4-(1-(2-(6-(Trifluoromethyl)imidazo[1,2-a]pyrazin-3-yl)pyrimidin-4-yl)pyrrolidin-3-yl)-1H-pyrazol-3-yl)methanol]
20 | > 5000 | 100 to 1000 |  |  | CC(=O)N1CCN(c2ccnc(-c3cnc4cnc(C(=O)O)cn34)n2)CC1 [IV-30, 3-(4-(4-Acetylpiperazin-1-yl)pyrimidin-2-yl)imidazo[1,2-a]pyrazine-6-carboxylic acid]
21 | 500 to 5000 | 10 to 100 |  |  | FC(F)(F)c1cn2c(-c3nccc(N4CCC(c5cn[nH]c5)C4)n3)cnc2cn1 (stereo not drawn) [IV-494, 3-(4-(3-(1H-Pyrazol-4-yl)pyrrolidin-1-yl)pyrimidin-2-yl)-6-(trifluoromethyl)imidazo[1,2-a]pyrazine]
22 | < 500 | < 10 |  |  | CC1CN(c2nccc(-c3cnc4cnc(Br)cn34)n2)C(C)C(c2cn[nH]c2)N1 (single isomer, unassigned) [IV-403, 6-Bromo-3-(2-(2,5-dimethyl-3-(1H-pyrazol-4-yl)piperazin-1-yl)pyrimidin-4-yl)imidazo[1,2-a]pyrazine]
23 | 500 to 5000 | 10 to 100 |  |  | FC(F)(F)c1cn2c(-c3nccc(N4CCC(c5cn[nH]c5)CC4)n3)cnc2cn1 [IV-680, 3-(4-(4-(1H-Pyrazol-4-yl)piperidin-1-yl)pyrimidin-2-yl)-6-(trifluoromethyl)imidazo[1,2-a]pyrazine]
24 | 500 to 5000 | < 10 |  |  | C[C@H]1CN(c2ccnc(-c3cnc4cnc(C(F)(F)F)cn34)n2)C[C@@H](c2c[nH]cn2)N1 (racemic) [IV-379, Cis-3-(4-(3-(1H-Imidazol-4-yl)-5-methylpiperazin-1-yl)pyrimidin-2-yl)-6-(trifluoromethyl)imidazo[1,2-a]pyrazine]
25 | 500 to 5000 | < 10 |  |  | CC1CN(c2ccnc(-c3cnc4cnc(Cl)cn34)n2)CC(c2cn[nH]c2)O1 (single isomer, unassigned) [IV-216, 4-(2-(6-Chloroimidazo[1,2-a]pyrazin-3-yl)pyrimidin-4-yl)-2-methyl-6-(1H-pyrazol-4-yl)morpholine]
26 | 500 to 5000 | 10 to 100 |  |  | CC(C)c1nc(C2CCCN(c3ccnc(-c4cnc5cnc(Br)cn45)n3)C2)c[nH]1 (stereo not drawn) [IV-384, 6-Bromo-3-(4-(3-(2-isopropyl-1H-imidazol-4-yl)piperidin-1-yl)pyrimidin-2-yl)imidazo[1,2-a]pyrazine]
27 | 500 to 5000 | < 10 |  |  | CC1CN(c2cc(N3CCC3)nc(-c3cnc4cnc(C(F)(F)F)cn34)n2)C(C)C(c2cn[nH]c2)N1 (stereo not drawn) [IV-637, 3-(4-(Azetidin-1-yl)-6-(2,5-dimethyl-3-(1H-pyrazol-4-yl)piperazin-1-yl)pyrimidin-2-yl)-6-(trifluoromethyl)imidazo[1,2-a]pyrazine]
28 | < 500 | < 10 |  |  | CC1CN(c2ccnc(-c3cnc4cnc(C(F)(F)F)cn34)n2)C(C)C(c2cn[nH]c2)O1 (single isomer, unassigned) [IV-451, 3,6-Dimethyl-2-(1H-pyrazol-4-yl)-4-(2-(6-(trifluoromethyl)imidazo[1,2-a]pyrazin-3-yl)pyrimidin-4-yl)morpholine]
29 | 500 to 5000 | < 10 |  |  | FC(F)(F)c1cn2c(-c3nccc(N4CC(c5cn[nH]c5)N5CCC[C@H]5C4)n3)cnc2cn1 (stereo partly drawn) [IV-679, 3-(4-((8aS)-4-(1H-Pyrazol-4-yl)hexahydropyrrolo[1,2-a]pyrazin-2(1H)-yl)pyrimidin-2-yl)-6-(trifluoromethyl)imidazo[1,2-a]pyrazine]
30 | > 5000 | 100 to 1000 |  |  | O=C1NCC2CN(c3ccnc(-c4cnc5cnc(C(F)(F)F)cn45)n3)CCN12 (stereo not drawn) [IV-480, 7-(2-(6-(Trifluoromethyl)imidazo[1,2-a]pyrazin-3-yl)pyrimidin-4-yl)hexahydroimidazo[1,5-a]pyrazin-3(2H)-one]
